Experimental data reported in US10988523B2, “Modified lipidated Relaxin B chain peptides and their therapeutic use” (Sanofi, priority 2018, dated 2021).
*1 amine or outer side, *2 acyl side, *3 side chain or, on linkers, in order; H or OH if unused. Where a SMILES comes first, the peptide text is derived from it. Side-chain parts run from the residue outwards. [ ]: non-standard residue; d: D form. The star is where a group is joined. γGlu = O=C(O)[C@H](CCC(=O)[*:2])N[*:1]; Stearoyl = CCCCCCCCCCCCCCCCCC(=O)*; Nle = CCCC[C@H](N)C(=O)O; AEEA = NCCOCCOCC(=O)O; Aib = CC(C)(N)C(=O)O

Legend:
[1] = molecular target: T1, RXFP1 (Homo sapiens, UniProt Q9HBX9); test: OVCAR5 cAMP assay (HTRF), RXFP1 agonist activity; type: cell-based; settings: for EC50: OVCAR5 cells, cAMP HTRF, read-out: EC50 (nM), OVCAR 5 cells (cAMP); for Emax: OVCAR-5, maximal cAMP relative to H2-relaxin maximum (100%), read-out: EMax, OVCAR 5 cells (cAMP)
T1 construct: OVCAR5 cells expressing endogenous RXFP1; endogenous in cells; host or cells: OVCAR5 cells
T1 sequence (Q9HBX9 1-757): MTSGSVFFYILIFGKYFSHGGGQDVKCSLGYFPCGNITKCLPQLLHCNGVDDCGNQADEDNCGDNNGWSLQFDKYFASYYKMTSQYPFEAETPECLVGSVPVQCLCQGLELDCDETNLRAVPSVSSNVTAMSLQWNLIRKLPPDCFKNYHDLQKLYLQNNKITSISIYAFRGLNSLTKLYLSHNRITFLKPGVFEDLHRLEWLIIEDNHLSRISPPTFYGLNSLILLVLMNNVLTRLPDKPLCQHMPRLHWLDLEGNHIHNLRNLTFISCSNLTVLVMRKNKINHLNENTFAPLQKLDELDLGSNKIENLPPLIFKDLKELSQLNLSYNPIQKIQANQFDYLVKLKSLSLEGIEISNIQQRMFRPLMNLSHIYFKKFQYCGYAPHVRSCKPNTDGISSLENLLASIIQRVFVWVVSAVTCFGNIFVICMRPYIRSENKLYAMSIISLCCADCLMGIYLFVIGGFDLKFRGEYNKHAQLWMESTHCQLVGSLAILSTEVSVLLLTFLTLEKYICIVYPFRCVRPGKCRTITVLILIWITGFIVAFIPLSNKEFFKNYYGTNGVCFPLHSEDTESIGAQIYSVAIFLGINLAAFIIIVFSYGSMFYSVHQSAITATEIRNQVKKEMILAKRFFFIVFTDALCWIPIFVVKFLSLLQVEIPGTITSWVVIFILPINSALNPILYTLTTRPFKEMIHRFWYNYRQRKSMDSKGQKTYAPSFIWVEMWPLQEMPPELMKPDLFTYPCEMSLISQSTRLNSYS
Method in brief: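 OVCAR5 cells (endogenous RXFP1) pretreated 40 min at 37° C with 1 mM IBMX, then exposed to peptides in serum-free medium for 30 min at 37° C. Lysate cAMP read by HTRF; EC50 from variable-slope sigmoidal fit; Emax as % of H2-relaxin maximal cAMP in same run.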

[2] = Pharmacokinetic (PK) determination after i.v. or s.c. administration to rats; type: in vivo, Sprague Dawley rats; settings: Sprague Dawley, Rat PK; for C0 / half-life: iv, 1 mg/kg i.v.; for C0: extrapolated plasma concentration at t=0, read-out: C0; for half-life / Cmax / Tmax / bioavailability: plasma; for half-life: read-out: T½ (converted); for Cmax / Tmax: sc, 3 mg/kg s.c.; for bioavailability: subcutaneous, 3 mg/kg s.c. vs 1 mg/kg i.v., dose-corrected AUC ratio
Method in brief: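 Sprague Dawley rats received peptide in PBS at 1 mg/kg i.v. or 3 mg/kg s.c., dose corrected for salts, solvent and purity. Plasma analysed by LC/MS after protein precipitation; non-compartmental PK, BLQ values set to zero, F% as dose-corrected s.c./i.v. AUC ratio.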

Row | EC50 [1] [nM] | Emax [1] [%] | C0 [2] [nM] | half-life [2] [h] | Cmax [2] [nM] | Tmax [2] [h] | bioavailability [2] [%] | Compound
1 | 0.16 | 90 | 3100 | 2.8 | 2360 | 7 | 41 | CCCCCCCCCCCCCCCCCC(=O)N[C@@H](CCC(=O)NCCOCCOCC(=O)N[C@@H](CCC(=O)N[C@@H](CCC(=O)NCCOCCOCC(=O)NCCOCCOCC(=O)NCCCC[C@H](NC(=O)[C@H](CCCCN)NC(=O)[C@H](CCCNC(=N)N)NC(=O)C(C)(C)NC(=O)[C@H](CO)NC(=O)[C@H](Cc1c[nH]c2ccccc12)NC(=O)[C@@H](NC(=O)[C@H](CO)NC(=O)[C@H](CCCC)NC(=O)CNC(=O)[C@H](CCC(=O)O)NC(=O)C(C)(C)NC(=O)C(C)(C)NC(=O)[C@@H](NC(=O)[C@H](CCC(N)=O)NC(=O)[C@H](C)NC(=O)[C@H](CCCNC(=N)N)NC(=O)[C@@H](NC(=O)[C@H](CCCCN)NC(=O)[C@H](CCC(=O)O)NC(=O)[C@H](CCCNC(=N)N)NC(=O)CNC(=O)[C@H](CCC(=O)O)NC(=O)[C@H](CC(C)C)NC(C)=O)C(C)C)[C@@H](C)CC)[C@@H](C)O)C(N)=O)C(=O)O)C(=O)O)C(=O)O [compound 100] (Ac-LEGREKVRAQI[Aib][Aib]EG[Nle]STWS[Aib]RKK([AEEA-AEEA-γGlu-γGlu-AEEA-γGlu-Stearoyl])-NH2)
2 | 0.16 | 86 | 1800 | 1.8 | 1000 | 7 | 39 | CCCCCCCCCCCCCCCCCC(=O)N[C@@H](CCC(=O)NCCOCCOCC(=O)N[C@@H](CCC(=O)N[C@@H](CCC(=O)NCCOCCOCC(=O)NCCOCCOCC(=O)NCCCC[C@H](NC(=O)[C@H](CCCCNC(C)=O)NC(=O)[C@H](CCCCN)NC(=O)[C@H](CCCNC(=N)N)NC(=O)C(C)(C)NC(=O)[C@H](CO)NC(=O)[C@H](Cc1c[nH]c2ccccc12)NC(=O)[C@@H](NC(=O)[C@H](CO)NC(=O)[C@H](CCCC)NC(=O)CNC(=O)[C@H](CCC(=O)O)NC(=O)C(C)(C)NC(=O)C(C)(C)NC(=O)[C@@H](NC(=O)[C@H](CCCCNC(C)=O)NC(=O)[C@H](C)NC(=O)[C@H](CCCNC(=N)N)NC(=O)[C@@H](NC(=O)[C@H](CCCCN)NC(=O)[C@H](CCC(=O)O)NC(=O)[C@H](CCCNC(=N)N)NC(=O)CNC(=O)[C@H](CCC(=O)O)NC(=O)[C@H](CC(C)C)NC(C)=O)C(C)C)[C@@H](C)CC)[C@@H](C)O)C(N)=O)C(=O)O)C(=O)O)C(=O)O [compound 101] (Ac-LEGREKVRAK(Ac)I[Aib][Aib]EG[Nle]STWS[Aib]RKK(Ac)K([AEEA-AEEA-γGlu-γGlu-AEEA-γGlu-Stearoyl])-NH2)
3 | 0.08 | 80 | 4250 | 1.16 | 1450 | 8 | 78 | CCCCCCCCCCCCCCCCCC(=O)N[C@@H](CCC(=O)NCCOCCOCC(=O)N[C@@H](CCC(=O)N[C@@H](CCC(=O)N[C@@H](CCC(=O)NCCOCCOCC(=O)NCCOCCOCC(=O)NCCCC[C@H](NC(=O)[C@H](CCCCN)NC(=O)[C@H](CCCCN)NC(=O)[C@H](CCCNC(=N)N)NC(=O)C(C)(C)NC(=O)[C@H](CO)NC(=O)[C@H](Cc1c[nH]c2ccccc12)NC(=O)[C@@H](NC(=O)[C@H](CO)NC(=O)[C@H](CCCC)NC(=O)CNC(=O)[C@H](CCC(=O)O)NC(=O)C(C)(C)NC(=O)C(C)(C)NC(=O)[C@@H](NC(=O)[C@H](CCCCNC(C)=O)NC(=O)[C@H](C)NC(=O)[C@H](CCCNC(=N)N)NC(=O)[C@@H](NC(=O)[C@H](CCCCN)NC(=O)[C@H](CCC(=O)O)NC(=O)[C@H](CCCNC(=N)N)NC(=O)CNC(=O)[C@H](CCC(=O)O)NC(=O)[C@H](CC(C)C)NC(C)=O)C(C)C)[C@@H](C)CC)[C@@H](C)O)C(N)=O)C(=O)O)C(=O)O)C(=O)O)C(=O)O [compound 102] (Ac-LEGREKVRAK(Ac)I[Aib][Aib]EG[Nle]STWS[Aib]RKKK([AEEA-AEEA-γGlu-γGlu-γGlu-AEEA-γGlu-Stearoyl])-NH2)
